Converted amounts (≈) assume the structure as drawn. “And” between values parts separate entries of the source, which are not always exact repeats. Equal values may be shown once.
Columns and labels:
[1] = tested on: P388 Lymphocytic leukemia; assay: NCI screen, P388 Lymphocytic leukemia, intraperitoneal (summary); assay type: in vivo, Mouse; details: for maximum increased life span: days 2-9 as printed; for Antitumor activity in words: P388
Excerpt: (§1) The activity of the compound has been evaluated by experiments carried out under the auspices of the Division of Cancer Treatment, National Cancer Institute, employing techniques considered to be reliable indicators of chemotherapeutic utility in the treatment of forms of cancer in human patients. The details of the methodology employed in the reported experiments may be determined with reference to established NCI screening methods.
(§2) In the experiments conducted by the NCI, evaluation of activity is made on the basis of appropriate parameters, such as median survival time (MST) or change in average tumor diameter (CATD)in ocular micrometer units (OMU).
The compound was found initially to be active in the P388 leukemia pre-screen, with T/C values (ratio of Test (T) evaluation to control (C) evaluation expressed as a percentage) of 177 and 176. Both values exceed the minimum T/C values for interest by the Decision Network Committe.

CX-1 colon xenograft = assay: NCI screen, CX-1 colon xenograft, renal capsule (summary); assay type: in vivo, human tumor xenograft in athymic mice; details: for Antitumor activity in words: CX-1 colon xenograft
Excerpt: as §1, §2

[2] = tested on: MX-1 mammary tumor xenograft; assay: NCI screen, MX-1 breast (mammary) xenograft, renal capsule (summary); assay type: in vivo, human tumor xenograft in athymic mice; details: for Antitumor activity in words: MX-1 mammary xenograft
Excerpt: as §1, §2

physchem = assay type: physicochemical
Protocol: While the compound was generally tested as a suspension in Tween-80, in one L1210 experiment it was tested as a solution in 0.1 N HCL diluted with saline. The level of activity (ILS=117%) was maintained. The solubilities of the compound in 0.01 N and 0.1 HCl are approximately 3 and 30 mg/ml, respectively.
Formulation: 100 mg drug and 1 N HCl lyophilized yield the salt. The lyophilized cake dissolves in 2 ml sterile water to yield a 50 mg/ml red solution at pH 5.0-7.0.

[3] = Blood compatibility testing, canine; details: 50 mg/ml, 1:1
L-1210 Lymphoid leukemia [4] = assay: Experiment 3: L-1210 i.p., 10^5 cells, saline with Tween-80, male; assay type: in vivo, Mouse CD2 F1 (CDF1)
Excerpt: (§3) Host: Mouse CD2 F1 (CDF1)
(§4) Tumor: L-1210 Lymphoid leukemia
Inoculum Site: intraperitoneal
(§5) Vehicle: Saline with Tween-80
Treatment schedule (relative to tumor inoculation day) daily on days 1-9
(§6) Day of evaluation (relative to tumor inoculation day): 30
Parameter: Mean survival time (MST) in days.
(§7) NCI minimal activity criteria: Percent T/C≥125
(§8) Percent T/C: Ratio of test (T) evaluation to control (C) evaluation expressed as a percentage

L-1210 Lymphoid leukemia [5] = assay: Experiment 6: L-1210 i.p., 10^4 cells, saline with Tween-80, male; assay type: in vivo, Mouse CD2 F1 (CDF1)
Excerpt: as §3, §4
(§9) Inoculum Site: Intraperitoneal
as §5
(§10) Treatment schedule (relative to tumor inoculation day): daily on days 1-9
as §6
(§11) Parameter: Median survival time (MST) in days
as §7, §8

L-1210 Lymphoid leukemia [6] = assay: Experiment 7: L-1210 i.p., 10^5 cells, acid diluted with saline, male; assay type: in vivo, Mouse CD2 F1 (CDF1)
Excerpt: as §3, §4, §9
Vehicle: Acid diluted with saline
as §10, §6, §11, §7, §8

Colon 38 = assay: Experiment 13: Colon 38 s.c., saline with Tween-80, male; assay type: in vivo, Mouse B6 D2 F1 (BDF1)
Excerpt: Host: Mouse B6 D2 F1 (BDF1)
Inoculum Site: Subcutaneous
as §5
Treatment schedule (relative to tumor inoculation day): Days 2 and 9
Day of evaluation (relative to tumor inoculation day): 20
Parameter: Median tumor weight (MTW) estimated from tumor diameter
NCI minimal activity criteria: Percent T/C≤42
as §8

B16 Melanocarcinoma = assay: Experiment 17: B16 i.p., saline with Tween-80, female; assay type: in vivo, Mouse B6C3F1
Excerpt: Tumor: B16 Melanocarcinoma
as §9
Tissue: Homogenate (or brei), tumor
as §5, §10
Day of evaluation (relative to tumor inoculation day): 60
as §11, §7, §8

HeLa cells = details: cytotoxic activity in vitro, monolayer; cited from earlier work
[7] = change in average tumor diameter, 4 tests, full wrapped cell: Activity not confirmed

Q: What does the source list for `CN(C)CCN1C(=O)c2cccc3cc(N)cc(c23)C1=O` [Example 9, 1H-Benz[de]isoquinoline-1,3(2H)-dione, 5-amino-2-[2-(dimethylamino)ethyl]]?
A: maximum increased life span ([1]; 8 mg/kg i.p.): 76%; maximum increased life span ([1]; 16 mg/kg i.p.): 77%; Antitumor activity in words ([1]; listed as BIDA): active; Antitumor activity in words ([1]; listed as the compound): at least a reproducible minimal activity; Table II evaluation ([1]; median survival time, 9 tests, full wrapped cell: Reproducible minimal activity): Reproducible minimal; T/C values in the P388 leukemia pre-screen ([1]; test/control as percentage, listed as the compound): 177% and 176%; Antitumor activity in words (CX-1 colon xenograft; listed as BIDA): No activity was seen; Antitumor activity in words (CX-1 colon xenograft; listed as the compound): not active; Table II evaluation (CX-1 colon xenograft; [7]): Activity not; Antitumor activity in words ([2]; listed as BIDA): No activity was seen; Antitumor activity in words ([2]; listed as the compound): not active; Table II evaluation [2, 7]: Activity not; solubility (physchem; 0.01 n hcl): ~3 mg/mL (≈ 10.6 mM); solubility (physchem; 0.1 hcl): ~30 mg/mL (≈ 106 mM); pH of reconstituted solution (physchem; lyophilized cake in 2 ml sterile water): 5.0-7.0; blood compatibility ([3]; canine heparinized plasma): compatibility; blood compatibility ([3]; canine serum): compatibility; Mean survival time (MST) (L-1210 Lymphoid leukemia [4]; 1.00 mg/kg i.p.): 7.5 days; Percent T/C (L-1210 Lymphoid leukemia [4]; 1.00 mg/kg i.p.): 92%; Mean survival time (MST) (L-1210 Lymphoid leukemia [4]; 2.00 mg/kg i.p.): 8.3 days; Percent T/C (L-1210 Lymphoid leukemia [4]; 2.00 mg/kg i.p.): 102%; Mean survival time (MST) (L-1210 Lymphoid leukemia [4]; 4.00 mg/kg i.p.): 8.7 days; Percent T/C (L-1210 Lymphoid leukemia [4]; 4.00 mg/kg i.p.): 107%; Mean survival time (MST) (L-1210 Lymphoid leukemia [4]; 8.00 mg/kg i.p.): 10.2 days; Percent T/C (L-1210 Lymphoid leukemia [4]; 8.00 mg/kg i.p.): 125%; Mean survival time (MST) (L-1210 Lymphoid leukemia [4]; 16.00 mg/kg i.p.): 14.2 days; Percent T/C (L-1210 Lymphoid leukemia [4]; 16.00 mg/kg i.p.): 175%; Mean survival time (MST) (L-1210 Lymphoid leukemia [4]; 32.00 mg/kg i.p.): 7.8 days; Percent T/C (L-1210 Lymphoid leukemia [4]; 32.00 mg/kg i.p.): 96%; Median survival time (MST) (L-1210 Lymphoid leukemia [5]; 2.00 mg/kg i.p.): 9.7 days; Percent T/C (L-1210 Lymphoid leukemia [5]; 2.00 mg/kg i.p.): 105%; Median survival time (MST) (L-1210 Lymphoid leukemia [5]; 4.00 mg/kg i.p.): 10.7 days; Percent T/C (L-1210 Lymphoid leukemia [5]; 4.00 mg/kg i.p.): 116%; Median survival time (MST) (L-1210 Lymphoid leukemia [5]; 8.00 mg/kg i.p.): 12.0 days; Percent T/C (L-1210 Lymphoid leukemia [5]; 8.00 mg/kg i.p.): 130%; Median survival time (MST) (L-1210 Lymphoid leukemia [5]; 16.00 mg/kg i.p.): 19.0 days; Percent T/C (L-1210 Lymphoid leukemia [5]; 16.00 mg/kg i.p.): 200%; Median survival time (MST) (L-1210 Lymphoid leukemia [5]; 32.00 mg/kg i.p.): 8.3 days; Percent T/C (L-1210 Lymphoid leukemia [5]; 32.00 mg/kg i.p.): 90%; Median survival time (MST) (L-1210 Lymphoid leukemia [6]; 1.00 mg/kg i.p.): 10.4 days; Percent T/C (L-1210 Lymphoid leukemia [6]; 1.00 mg/kg i.p.): 99%; Median survival time (MST) (L-1210 Lymphoid leukemia [6]; 2.00 mg/kg i.p.): 10.2 days; Percent T/C (L-1210 Lymphoid leukemia [6]; 2.00 mg/kg i.p.): 97%; Median survival time (MST) (L-1210 Lymphoid leukemia [6]; 4.00 mg/kg i.p.): 10.4 days; Percent T/C (L-1210 Lymphoid leukemia [6]; 4.00 mg/kg i.p.): 99%; Median survival time (MST) (L-1210 Lymphoid leukemia [6]; 8.00 mg/kg i.p.): 12.4 days; Percent T/C (L-1210 Lymphoid leukemia [6]; 8.00 mg/kg i.p.): 118%; Median survival time (MST) (L-1210 Lymphoid leukemia [6]; 16.00 mg/kg i.p.): 11.8 days; Percent T/C (L-1210 Lymphoid leukemia [6]; 16.00 mg/kg i.p.): 112%; Median survival time (MST) (L-1210 Lymphoid leukemia [6]; 32.00 mg/kg i.p.): 8.0 days; Median tumor weight (MTW) (Colon 38; 16.00 mg/kg i.p.): 2474; Percent T/C (Colon 38; 16.00 mg/kg i.p.): 102%; Median tumor weight (MTW) (Colon 38; 32.00 mg/kg i.p.): 1146; Percent T/C (Colon 38; 32.00 mg/kg i.p.): 47%; Median tumor weight (MTW) (Colon 38; 64.00 mg/kg i.p.): 700; Percent T/C (Colon 38; 64.00 mg/kg i.p.): 29%; Median tumor weight (MTW) (Colon 38; 128.00 mg/kg i.p.): Deaths before evaluation; Median survival time (MST) (B16 Melanocarcinoma; 1.00 mg/kg i.p.): 18.8 days; Percent T/C (B16 Melanocarcinoma; 1.00 mg/kg i.p.): 102%; Median survival time (MST) (B16 Melanocarcinoma; 2.00 mg/kg i.p.): 17.0 days; Percent T/C (B16 Melanocarcinoma; 2.00 mg/kg i.p.): 102%; Median survival time (MST) (B16 Melanocarcinoma; 4.00 mg/kg i.p.): 20.0 days; Percent T/C (B16 Melanocarcinoma; 4.00 mg/kg i.p.): 120%; Median survival time (MST) (B16 Melanocarcinoma; 8.00 mg/kg i.p.): 19.4 days; Percent T/C (B16 Melanocarcinoma; 8.00 mg/kg i.p.): 116%; Median survival time (MST) (B16 Melanocarcinoma; 16.00 mg/kg i.p.): 22.9 days; Percent T/C (B16 Melanocarcinoma; 16.00 mg/kg i.p.): 137%; Median survival time (MST) (B16 Melanocarcinoma; 32.00 mg/kg i.p.): 7.0 days; ID50 in HeLa cells (HeLa cells): 2.5 mg/L (≈ 0.00882 mM)

From patent publication US5183821A, “Method for treating leukemias using N-(2-dimethylaminoethyl)-3-amino-1,8-naphthalimide for treating leukemias and solid tumors” (priority 1991, dated 1993)
